Results on 43 compounds are retold here after patent US20150094294A1, “COMPOUNDS AND METHODS FOR TREATING MALARIA” (Cellceutix Corporation, priority 2012, published 2015).

In brackets after ≈: the same amount, converted by molar mass. A value given as a limit tells only on which side of the number the result lay.

Holding throughout (type): cell-based
Data set [1] deals with P. falciparum 3D7 (chloroquine-sensitive). Nature of the data set: Anti-malarial activity, P. falciparum 3D7 culture, 72 hour, DNA content by flow cytometry. The note with it: synchronized ring-stage parasites. Put shortly:
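Magnet-synchronized ring-stage parasites in RPMI 1640/Albumax II were plated at 0.5% parasitemia, 4% final hematocrit, with compound added as 2× dilutions (2.5 μM to 20 nM) for 72 h. Fixed, Triton-permeabilized cells were stained with SYTOX Green (5 μM final), and DNA content was measured by flow cytometry to derive IC50.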
For orientation: Flow cytometry measures light scatter and fluorescence of single cells or particles in a stream.

For a further data set, the system named is HepG2 cells. Nature of the data set: Cytotoxicity against HepG2 cells.
Another data set concerns 3T3 cells. Briefly: Cytotoxicity against 3T3 cells.
The nature of the next data set: in vitro.
The nature of data set [2]: Cytotoxicity against HepG2 cells. The following applies: human, HepG2 cells; read-out: Cytotoxicity HepG2 EC50.
Data set [3] is described as follows: Cytotoxicity against 3T3 cells. The note with it: mouse, 3T3 cells; read-out: Cytotoxicity 3T3 EC50.

For `CN1CCN(c2ccc(-c3ccc(-c4ccc(N5CCN(C)CC5)cc4)s3)cc2)CC1` [Compound 260], the 50% inhibitory concentration (IC50) (in general, the concentration needed to halve the response being measured) in data set [1] is above 0.1 µM. The 50% effective concentration (EC50) with HepG2 cells and in the data set on 3T3 cells was above 1000 µM each time.
Regarding `NCCc1cccc(-c2ccc(-c3cccc(CCN)c3)s2)c1` [Compound 236], in data set [1], the IC50 was above 2 µM. In addition, the results for the EC50 in the data set with HepG2 cells and with 3T3 cells were 186 µM and below 14 µM, respectively.
Taken in the same sequence, the figures for `O=C(Nc1ccc(O[C@@H]2CCNC2)c(C(F)(F)F)c1)c1cc(C(=O)Nc2ccc(O[C@@H]3CCNC3)c(C(F)(F)F)c2)ncn1` [Compound 187] were 0.041 µM, 130 µM and 42 µM.
Taken in the same sequence, the figures for `N=C(N)NCCCCC(=O)Nc1cc(F)cc(NC(=O)c2cc(C(=O)Nc3cc(F)cc(NC(=O)CCCCNC(=N)N)c3SCCN)ncn2)c1SCCN` [Compound 105] were 0.225 µM, 81 µM and 44 µM.
`CC(C)(C)c1cc(NC(=O)c2cccc(C#N)c2)c(SCCN)c(NC(=O)c2cc(C(=O)Nc3cc(C(C)(C)C)cc(NC(=O)c4cccc(C#N)c4)c3SCCN)ncn2)c1` [Compound 198] gave a half-maximal inhibitory concentration (IC50) in data set [1] of 0.005 µM. Further, the results for the 50% effective concentration (EC50) in the data set on HepG2 cells and with 3T3 cells were 30 µM and 7 µM, respectively.
In data set [1], `O=C(Nc1ccc(OC2CCNC2)c(F)c1)c1cc(C(=O)Nc2ccc(OC3CCNC3)c(F)c2)ncn1` (stereo not shown) [Compound 209] returned a half-maximal inhibitory concentration (IC50) of 0.066 µM. The concentration for a half-maximal effect (EC50) – broadly, the midpoint of the concentration-response curve – amounted to 516 µM with HepG2 cells and 431 µM in the data set on 3T3 cells.
For `N=C(N)N1CC=C(c2ccc3sc4ccc(C5=CCN(C(=N)N)CC5)cc4c3c2)CC1` [Compound 286], the IC50 in data set [1] was 0.08 µM. Besides, the 50% effective concentration (EC50) in the data set with HepG2 cells is 221 µM; with 3T3 cells it was 83 µM.
The matching figures for `N=C(N)N1CC[C@@H](Oc2ccc(NC(=O)c3cc(C(=O)Nc4ccc(O[C@@H]5CCN(C(=N)N)C5)c(C(F)(F)F)c4)ncn3)cc2C(F)(F)F)C1` [Compound 190]: 0.026 µM, 41 µM and 33 µM.
Take `Cn1c(-c2cccc(CCN)c2)cnc1-c1cccc(CCN)c1` [Compound 245]: the half-maximal inhibitory concentration (IC50) in data set [1] was 0.541 µM. Also, the EC50 in the data set on HepG2 cells and in the data set with 3T3 cells was above 1000 µM each time.
Turning to `NCCc1ccc(-c2ccc(-c3ccc(CCN)cc3)s2)cc1` [Compound 247], the IC50 in data set [1] is 0.034 µM. The half-maximal effective concentration (EC50) in the data set with HepG2 cells was 74 µM; in the data set on 3T3 cells, below 14 µM.
As for `N=C(N)NCCc1cccc(-c2cnc(-c3cccc(CCNC(=N)N)c3)s2)c1` [Compound 243], the concentration for half-maximal inhibition (IC50) in data set [1] is 0.058 µM. The concentration giving a half-maximal response (EC50) with HepG2 cells was 723 µM; with 3T3 cells it was 523 µM.
With `N=C(N)NCCc1cccc(-c2cncc(-c3ccc(-c4cncc(-c5cccc(CCNC(=N)N)c5)c4)cc3)c2)c1` [Compound 231], the IC50 in data set [1] stood at 0.369 µM. In addition, the figures for the EC50 in the data set on HepG2 cells and in the data set with 3T3 cells were above 1000 µM and 998 µM, respectively.
On to `NCCSc1c(NC(=O)c2cccnc2)cc(C(F)(F)F)cc1NC(=O)c1cc(C(=O)Nc2cc(C(F)(F)F)cc(NC(=O)c3cccnc3)c2SCCN)ncn1` [Compound 315], for which the concentration giving a half-maximal response (EC50) in the data set on HepG2 cells was found to be 34 µM; in the data set on 3T3 cells, 21 µM.
In data set [1], `CN(C)CCSc1ccc(NC(=O)c2cc(C(=O)Nc3ccc(SCCN(C)C)cc3)ncn2)cc1` [Compound 202] gave a half-maximal inhibitory concentration (IC50) of 0.007 µM. Further, the EC50 in the data set with HepG2 cells worked out at 648 µM; in the data set on 3T3 cells, 632 µM.
The matching figures for `O=C(Nc1ccc(N2CCNCC2)cc1)c1cccc(C(=O)Nc2ccc(N3CCNCC3)cc2)n1` [Compound 211]: above 0.1 µM, above 1000 µM and above 1000 µM.
Taken in the same sequence, the figures for `N=C(N)NCCc1ccccc1-c1ccc(-c2ccccc2CCNC(=N)N)s1` [Compound 251] were 0.012 µM, 692 µM and 559 µM.
In data set [1], `NCCCOc1cccc(-c2cncc(-c3ccc(-c4cncc(-c5cccc(OCCCN)c5)c4)s3)c2)c1` [Compound 225] yielded an IC50 of 0.461 µM. Also, the values for the EC50 with HepG2 cells and in the data set on 3T3 cells were 179 µM and 35 µM, respectively.
Taken in the same sequence, the figures for `NCCCSc1ccc(NC(=O)Nc2ccc(SCCCN)c(C(F)(F)F)c2)cc1C(F)(F)F` [Compound 274] were above 2 µM, 164 µM and 72 µM.
Turning to `NCCc1cccc(-c2cc(-c3ccc(-c4cc(-c5cccc(CCN)c5)ncn4)s3)ncn2)c1` [Compound 229], in data set [1], half-maximal inhibition (IC50) was put at 0.628 µM. Besides, the values for the EC50 with HepG2 cells and with 3T3 cells were 262 µM and 3 µM, respectively.
`N=C(N)NCCc1cccc(-c2ccc(-c3cccc(CCNC(=N)N)c3)o2)c1` [Compound 240]: the IC50 in data set [1] came to 0.121 µM. The EC50 came to 904 µM with HepG2 cells and 461 µM in the data set with 3T3 cells.
Taken in the same sequence, the figures for `CC1(C)c2cc(-c3cccc(CCN)c3)ccc2-c2ccc(-c3cccc(CCN)c3)cc21` [Compound 281] were above 0.1 µM, 5 µM and 2 µM.
On to `CN(C)C1CCN(c2ccc(NC(=O)c3cc(C(=O)Nc4ccc(N5CCC(N(C)C)CC5)cc4)ncn3)cc2)CC1` [Compound 213], for which the concentration for half-maximal inhibition (IC50) in data set [1] turned out to be 0.035 µM. The 50% effective concentration (EC50) in the data set on HepG2 cells stood at 51 µM; in the data set with 3T3 cells it was 244 µM.
In turn, `Nc1cccc(NC(=O)c2cc(C(=O)Nc3cccc(N)n3)ncn2)n1` [Compound 189] registered an IC50 in data set [1] above 2 µM. The EC50 in the data set with HepG2 cells and in the data set with 3T3 cells was above 1000 µM in each case.
Compound `N=C(N)NCCSc1ccc(NC(=O)Nc2ccc(SCCCN)c(C(F)(F)F)c2)cc1C(F)(F)F` [Compound 275] showed an IC50 in data set [1] of 1.7 µM. For the same compound, the figures for the EC50 in the data set on HepG2 cells and with 3T3 cells were 342 µM and 124 µM, respectively.
On to `NCCCOc1cccc(-c2ccc(-c3cccc(OCCCN)c3)s2)c1` [Compound 241], for which the 50% inhibitory concentration (IC50) in data set [1] is above 2 µM. For the same compound, the concentration giving a half-maximal response (EC50) was determined as 38 µM with HepG2 cells and 34 µM with 3T3 cells.
For `c1cc2sc3ccc(NC4CCNCC4)cc3c2cc1NC1CCNCC1` [Compound 295], the EC50 with HepG2 cells and in the data set with 3T3 cells was above 1000 µM throughout.
In data set [1], `N=C(N)NCCCOc1cc(OCCCNC(=N)N)c(-c2cccc(F)c2)cc1-c1cccc(F)c1` [Compound 138] returned an IC50 of 0.226 µM. Besides, the EC50 in the data set on HepG2 cells worked out at 85 µM; in the data set on 3T3 cells it was 78 µM.
The matching figures for `CCn1c2ccc(C3=CCN(C(=N)N)CC3)cc2c2cc(C3=CCN(C(=N)N)CC3)ccc21` [Compound 287]: above 0.1 µM, 200 µM and 84 µM.
In data set [1], `NCCc1cccc(-c2cncc(-c3ccc(-c4cncc(-c5cccc(CCN)c5)c4)s3)c2)c1` [Compound 223] yielded a 50% inhibitory concentration (IC50) of 0.516 µM. Also, the EC50 with HepG2 cells came to 82 µM; with 3T3 cells it was 18 µM.
Take `NCCc1cccc(-c2cncc(-c3ccc(-c4cncc(-c5cccc(CCN)c5)c4)cc3)c2)c1` [Compound 234]: 0.655 µM corresponded to half-maximal inhibition in data set [1] (IC50). The EC50 in the data set on HepG2 cells and in the data set on 3T3 cells was above 1000 µM in each case.
`COc1cc(SCCN)c(C(F)(F)F)cc1NC(=O)Nc1cc(C(F)(F)F)c(SCCN)cc1OC` [Compound 277]: the IC50 in data set [1] was found to be 0.57 µM. In addition, the EC50 in the data set with HepG2 cells is 64 µM; in the data set on 3T3 cells, 31 µM.
Taken in the same sequence, the figures for `N=C(N)NCCCOc1cccc(-c2ccc(-c3cccc(OCCCNC(=N)N)c3)s2)c1` [Compound 244] were 0.149 µM, 19 µM and 20 µM.
`Cn1c(-c2ccc(CCCNC(=N)N)cc2)cnc1-c1ccc(CCCNC(=N)N)cc1` [Compound 267] came in with an IC50 in data set [1] of 0.029 µM. For the same compound, the EC50 in the data set with HepG2 cells was found to be 823 µM; in the data set on 3T3 cells, 651 µM.
Taken in the same sequence, the figures for `c1cc2sc3ccc(N4CCNCC4)cc3c2cc1N1CCNCC1` [Compound 291] were above 0.1 µM, 410 µM and 345 µM.
For `C[N+]1(C)CCN(c2ccc(-c3ccc(-c4ccc(N5CC[N+](C)(C)CC5)cc4)o3)cc2)CC1` [Compound 264], the EC50 in the data set with HepG2 cells and in the data set with 3T3 cells was above 1000 µM each time.
`O=C(Nc1ccc(OC2CCNCC2)cc1)c1cc(C(=O)Nc2ccc(OC3CCNCC3)cc2)ncn1` [Compound 199] registered an IC50 in data set [1] of 0.01 µM. Further, the concentration giving a half-maximal response (EC50) in the data set with HepG2 cells was 353 µM; in the data set with 3T3 cells it was 192 µM.
In data set [1], `NCCSc1nc(-c2cccc(CCN)c2)cc(-c2cccc(CCN)c2)n1` [Compound 220] displayed a concentration for half-maximal inhibition (IC50) of 1.55 µM. Also, the EC50 in the data set on HepG2 cells and in the data set with 3T3 cells was above 1000 µM each time.
For the compound `CCN(CC)CCN(CCN)c1ccc(C(F)(F)F)cc1NC(=O)Nc1cc(C(F)(F)F)ccc1N(CCN)CCN(CC)CC` [Compound 126], the IC50 in data set [1] was found to be 0.66 µM. Also, the values for the concentration giving a half-maximal response (EC50) in the data set with HepG2 cells and with 3T3 cells were 562 µM and 140 µM, respectively.
The matching figures for `NCCc1ccccc1-c1ccc(-c2ccccc2CCN)s1` [Compound 249]: 0.028 µM, 46 µM and 7 µM.
Regarding `CN(C)C1CCN(c2ccc3sc4ccc(N5CCC(N(C)C)CC5)cc4c3c2)CC1` [Compound 297], the concentration for a half-maximal effect (EC50) in the data set on HepG2 cells was 675 µM; in the data set with 3T3 cells it was 518 µM.
For the compound `CCn1c2ccc(N3CCC(N(C)C)CC3)cc2c2cc(N3CCC(N(C)C)CC3)ccc21` [Compound 298], the EC50 in the data set with HepG2 cells and with 3T3 cells was above 1000 µM throughout.
On to `NCCCc1ccc(-c2ccc(-c3ccc(CCCN)cc3)s2)cc1` [Compound 263], for which the 50% effective concentration (EC50) in the data set on HepG2 cells turned out to be 1 µM; with 3T3 cells it was 6 µM.
In turn, `COc1cc(SCCN)c(C(F)(F)F)cc1NC(=O)c1cc(C(=O)Nc2cc(C(F)(F)F)c(SCCN)cc2OC)nc(SCCN)n1` [Compound 183] displayed an IC50 in data set [1] (Plasmodium falciparum, 3D7, 72 h) of 0.383 µM. Moreover, the half-maximal effective concentration (EC50) in the data set “in vitro” amounted to 5 µg/mL (≈ 6.76 µM); in data set [2], 739 µM; in data set [3], 694 µM.
